One may read the IC50 as the midpoint of a concentration-inhibition curve.

The results in this text go back to patent US5219879A, “Heterocyclic steroid compounds” (Du Pont Merck Pharmaceutical Company, priority 1991, dated 1993).

The first assay has as its system 3-Hydroxy-3-Methylglutaryl Coenzyme A Reductase (HMGR). Nature of the assay: 3-Hydroxy-3-Methylglutaryl Coenzyme A Reductase (HMGR) Suppression Assay. It counts as cell-based, Chinese Hamster (CHO cells). The following applies: CHO cells, 6 hr. at 37°; read-out: IC50 (amount of compound required to suppress HMGR activity by 50% relative to controls).
Protocol: The ability of the compounds of Formula I to suppress the activity of HMGR, the rate limiting enzyme of cholesterol biosynthesis, was tested as follows.
Chinese Hamster Ovary (CHO) cells were divided twice weekly and were maintained in McCoy's 5A medium supplemented with 1% carbosil delipidated Fetal Bovine System (FBS) (obtained from Gibco Laboratories, Chagrin Falls, Ohio). Cells were harvested during the logarithmic phase of growth and cell cultures were prepared by adding […] cells to each well in a 24 well cluster dish (obtained from Costar, Data Packaging Corp., Cambridge, Mass.) employing 1 ml of the above medium per each well. […] Control cells were treated in an identical fashion to those which received test compound, except they were incubated with the BSA and ethanol suspension only.
Specifically, the medium in each well was aspirated and the cells rinsed with a 50 mM solution of phosphate buffered saline (PBS). One ml of 30 mg/ml of digitonin in CSK buffer (prepared using 10 mM Pipes [piperazine-N,N'-bis (2-ethansulfonic) acid], 100 mM KCl, 2.5 mM MgCl2, 300 mM sucrose, 1 mM EGTA, pH 6.8) was added to each well and incubated for 10 min. at 22° to permeabilize the cells. The buffer was carefully aspirated and the wells were rinsed twice each time with 1 ml of PBS. HMGR activity was measured directly by adding 75 ml of PIB buffer (50 mM potassium phosphate, 1 mM Na2 EDTA, 10 mM dithiothreitol, pH 7.4) to each well and incubating the cells for 30 minutes at 37° as described above. […] The assay mixture was incubated for 30 min. at 37° and terminated by the addition of 70 ml of [^3 H]-mevalonicacid (35,000 DPM/assay), 0.15 mg/ml in 3N HCl.
The reaction was left to lactonize for an additional 30 min. at 37° or overnight at room temperature.
Reaction products were separated by thin layer chromatography on silica gel G (obtained from Analtech, Newark, Del.) developed in an unsaturated environment with acetone:benzene (3:2, v:v). The band corresponding to mevalonolactone was identified by exposure to iodine vapor and was scraped into counting vials. The extent of conversion of starting substrate, HMG-CoA, to mevalonic acid was determined by liquid scintillation counting in Biofluor (obtained from New England Nuclear, Boston, Mass.). Corrections for recovery and blank values were made for each sample. Protein determinations were made by Bio-Rad (Bio-Rad, Richmond, Calif.) dye binding assay according to the manufacturer's instruction using bovine serum albumin as standard. Cellular protein was solubilized from culture dishes by the addition of 20 μl of 16N KOH and assayed directly for protein amount. Suppression values are expressed as the amount of compound required to suppress HMGR activity by 50% relative to that of the controls.
Take `CC(C)CCC[C@@H](C)[C@H]1CCO[C@@]2(C=O)C3=C(CC[C@]12C)[C@@]1(C)CC[C@H](O)C(C)(C)[C@@H]1CC3` [Example 677, 14a-Oxa-32-oxo-D-homo-dihydrolanosterol]: the concentration for half-maximal inhibition (IC50) turned out to be 2500 nM. For the molecule `CC(C)CCC[C@@H](C)[C@H]1CO[C@@]2(C=O)C3=C(CC[C@]12C)[C@@]1(C)CCC(=O)C(C)(C)[C@@H]1CC3` [Example 386], the IC50 came to 80 nM. Still for that read-out and setting: to `CC(C)CCC[C@@H](C)[C@H]1CO[C@@]2(C=O)C3=C(CC[C@]12C)[C@@]1(C)CC[C@H](O)C(C)(C)[C@@H]1CC3` [Example 7, 15-Oxa 32-oxodihydrolanosterol] belongs 40 nM. `CC(C)CCC[C@@H](C)[C@H]1CCS[C@H]2C3=C(CC[C@]12C)[C@@]1(C)CC[C@H](O)C(C)(C)[C@@H]1CC3` [Example 1509, 4,4-Dimethyl-15-thia-D-homo-5a-cholest-8-en-3b-ol]: the IC50 is 5000 nM.

`CC(C)CCC[C@@H](C)[C@H]1CCS[C@@]2(C)C3=C(CC[C@]12C)[C@@]1(C)CC[C@H](O)C(C)(C)[C@@H]1CC3` [Example 1508]: the IC50 came out at 1250 nM.

For the molecule `CC(C)CCC[C@@H](C)[C@H]1CO[C@@]2([C@@H](O)CO)C3=C(CC[C@]12C)[C@@]1(C)CC[C@H](O)C[C@@H]1CC3` [Example 17], the IC50 was determined as 1950 nM. For `CC(C)CCC[C@@H](C)[C@H]1CS[C@@]2(C)C3=C(CC[C@]12C)[C@@]1(C)CC[C@H](O)C(C)(C)[C@@H]1CC3` [Example 857], the IC50 is 60 nM. Same read-out and setting: the figure for `CC(C)CCC[C@@H](C)[C@H]1CS[C@H]2C3=C(CC[C@]12C)[C@@]1(C)CC[C@H](O)C(C)(C)[C@@H]1CC3` [Example 858, 4,4-Dimethyl-15-thia-5a-cholest-8-en-3b-ol] is 550 nM; for `CC(C)CCC[C@@H](C)[C@H]1CO[C@@]2(C=O)C3=C(CC[C@]12C)[C@@]1(C)CC[C@H](O)C[C@@H]1CC3` [Example 18] it is 300 nM. Still for that read-out and setting: to `CC(C)CCC[C@@H](C)[C@H]1CO[C@@]2(C=NO)C3=C(CC[C@]12C)[C@@]1(C)CC[C@H](O)C(C)(C)[C@@H]1CC3` [Example 10, 3b-Hydroxy-15-oxa-lanost-8-en-32-aldoxime] belongs 200 nM. The same measure, in the same setting: to `CC(C)CCC[C@@H](C)[C@H]1CCO[C@H]2C3=C(CC[C@]12C)[C@@]1(C)CC[C@H](O)C(C)(C)[C@@H]1CC3` [Example 673, 4,4-dimethyl-14a-Oxa-D-homo-5a-cholest-8-en-3b-ol] belongs 1460 nM. With `C=C[C@@]12OC[C@H]([C@H](C)CCCC(C)C)[C@@]1(C)CCC1=C2CC[C@H]2C(C)(C)[C@@H](O)CC[C@]12C` [Example 3, 4,4-Dimethyl-15-oxa-14a-vinyl-5a-cholest-8-en-3b-ol], the IC50 is 170 nM. Take `CC(C)CCC[C@@H](C)[C@H]1CO[C@H]2C3=C(CC[C@]12C)[C@@]1(C)CC[C@H](O)C(C)(C)[C@@H]1CC3` [Example 2, 4,4-Dimethyl-15-oxa-5a-cholest-8-en-3b-ol]: the IC50 is 300 nM. On the same count and under the same terms, the figure for `CC(C)CCC[C@@H](C)[C@H]1CO[C@@]2(C)C3=C(CC[C@]12C)[C@@]1(C)CC[C@H](O)C[C@@H]1CC3` [Example 13, 14a-Methyl-15-oxa-5a-cholest-8-en-3b-ol] is 2500 nM. Still for that read-out and setting: to `CC(C)CCC[C@@H](C)[C@H]1CO[C@@]2(CO)C3=C(CC[C@]12C)[C@@]1(C)CC[C@H](O)C(C)(C)[C@@H]1CC3` [Example 8, 15-Oxa-lanost-8-ene-3b,32-diol] belongs 2500 nM. On the same count and under the same terms, the figure for `CC(C)CCC[C@@H](C)[C@H]1CO[C@@]2(CO)C3=C(CC[C@]12C)[C@@]1(C)CC[C@H](O)C[C@@H]1CC3` [Example 19] is 2080 nM.

The same assay, now with this note: CHO cells, tested under these same conditions.
On to `CC(C)CCC[C@@H](C)[C@H]1CC[C@@]2(C)C3=C(CC[C@]12C)[C@@]1(C)CC[C@H](O)C(C)(C)[C@@H]1CC3` [lanost-8-en-3b-ol, reference compound], for which the “effect on measured HMGR activity” value is recorded as “without effect”.

As for `CC(C)=CCC[C@@H](C)[C@H]1CC[C@@]2(C)C3=C(CC[C@]12C)[C@@]1(C)CC[C@H](O)C(C)(C)[C@@H]1CC3` [lanosta-8,24-diene-3b-ol, reference compound], the “effect on measured HMGR activity” value is recorded as “without effect”.
